Where “and” joins values, the source holds several entries; their conditions need not be identical. Equal entries are not always repeated. Where two headings read alike, the source gives them in different places.

Assay [1] deals with T1, mTRPA1 (Mus musculus, UniProt Q8BLA8).
T1 construct: expressed in transfected cells; host or cells: CHO cells
Kind of assay: Ratiometric calcium imaging of CHO cells expressing mTRPA1. In kind it is cell-based. Conditions: for increase in intracellular free calcium: ratiometric calcium imaging.

In assay [2] the target is T2, mouse TRPA1 (Mus musculus, UniProt Q8BLA8).
T2 construct: expressed in transfected cells; host or cells: CHO cells
T2 sequence (Q8BLA8 whole entry): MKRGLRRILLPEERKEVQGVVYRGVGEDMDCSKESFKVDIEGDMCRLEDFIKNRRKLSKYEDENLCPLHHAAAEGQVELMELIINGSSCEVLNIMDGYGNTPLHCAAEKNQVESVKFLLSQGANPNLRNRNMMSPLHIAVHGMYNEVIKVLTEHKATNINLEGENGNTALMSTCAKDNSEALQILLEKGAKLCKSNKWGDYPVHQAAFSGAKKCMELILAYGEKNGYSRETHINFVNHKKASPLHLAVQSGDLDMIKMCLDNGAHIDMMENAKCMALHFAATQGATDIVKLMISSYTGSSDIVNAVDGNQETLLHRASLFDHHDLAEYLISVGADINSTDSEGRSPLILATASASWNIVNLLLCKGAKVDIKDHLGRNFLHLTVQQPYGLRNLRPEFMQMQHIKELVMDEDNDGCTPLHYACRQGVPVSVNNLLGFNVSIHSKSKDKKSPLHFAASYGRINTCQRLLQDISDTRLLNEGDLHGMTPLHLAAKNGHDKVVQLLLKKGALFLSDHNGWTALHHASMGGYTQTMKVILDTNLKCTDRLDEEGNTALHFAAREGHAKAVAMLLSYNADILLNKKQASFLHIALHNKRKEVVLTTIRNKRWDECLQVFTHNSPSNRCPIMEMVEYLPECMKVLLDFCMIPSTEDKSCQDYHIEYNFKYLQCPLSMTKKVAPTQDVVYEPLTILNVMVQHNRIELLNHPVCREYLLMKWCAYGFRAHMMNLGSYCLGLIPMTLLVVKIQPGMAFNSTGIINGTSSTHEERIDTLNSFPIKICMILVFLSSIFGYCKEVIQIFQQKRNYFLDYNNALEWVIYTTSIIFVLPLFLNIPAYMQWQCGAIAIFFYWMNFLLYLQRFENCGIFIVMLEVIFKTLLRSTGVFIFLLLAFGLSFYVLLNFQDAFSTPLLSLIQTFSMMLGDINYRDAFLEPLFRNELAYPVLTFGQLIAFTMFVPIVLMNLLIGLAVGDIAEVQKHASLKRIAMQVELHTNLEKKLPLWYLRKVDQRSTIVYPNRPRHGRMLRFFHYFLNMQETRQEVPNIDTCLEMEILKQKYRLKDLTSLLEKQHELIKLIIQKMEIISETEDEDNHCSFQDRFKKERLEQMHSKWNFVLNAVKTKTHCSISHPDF
Briefly: FLIPR intracellular calcium assay, mouse TRPA1-expressing CHO cells. Conditions: FLIPR; for increase in intracellular calcium upon application: mTRPA1 CHO cells; for EC50: mTRPA1. In kind it is cell-based.

Assay [3] relates to TRPM8. Kind of assay: Calcium imaging of TRPM8-expressing CHO cells. Format: cell-based. The protocol:
We focused on the two mTRPA1-specific compounds. Using FLIPR, we determined the concentration for half maximal activation to be 61±9 μM for cinnamaldehyde and 22±3 μM for allyl isothiocyanate. […] Ruthenium red, a known blocker of mTRPA1, blocked the cinnamaldehyde response.
(§1) We next tested if specific inhibition of PLC by U-73122 would affect TRPA1 activation by bradykinin. […] We then tested if PLC inhibition of TRPA1 was stimulus specific. […] We further tested the role of PLC inhibition on TRPM8.

The subject of assay [4] is B2R/TRPA1- expressing CHO cells. Kind of assay: Calcium imaging of BK responses in B2R/TRPA1-expressing CHO cells. In kind it is cell-based. Conditions: 10 μM.
From the text: as §1

Assay [5] deals with B2R-expressing cells. Briefly: Calcium imaging of BK responses in B2R-expressing cells. Format: cell-based. Conditions: 10 μM.
From the text: as §1

For assay [6], the system named is TRPV1. Kind of assay: Calcium imaging of TRPV1-expressing CHO cells. Format: cell-based.
Assay [7] concerns adult rat DRG neurons. Briefly: Calcium imaging of cultured adult rat DRG neurons. In kind it is cell-based. Conditions: 1.6 times the EC50. The text has this: To further test this hypothesis, and to find out if the pungent compounds described above activate TRPA1 specifically, we performed calcium imaging of adult rat DRG neurons in response to cold, menthol, cinnamaldehyde, allyl isothiocyanate, and bradykinin. […] To a large extent, cinnamaldehyde and menthol activated mutually exclusive populations of cold-responsive neurons, as our model would predict. Allyl isothiocyanate appeared less specific as it activated 63% of the cold-responsive population (including a large overlap with menthol) and 12% of the cold-insensitive population. We have used 1.6 times the EC50 values of cinnamaldehyde and allyl isothiocyanate to enable us to directly compare DRG response profiles to these compounds. […] There were no significant differences in profiles of cinnamaldehyde and allyl isothiocyanate between cultures in the presence of 1 and 100 ng/ml of NGF.
In addition to the pungent sensory compounds, we have shown that BK can activate TRPA1.
To test if garlic extracts and allicin specifically activate TRPA1 in native neurons, we performed calcium imaging of adult rat DRG neurons. […] Addition of allicin or garlic extract to cultured rat DRG neurons activated a specific population of neurons.

The target in assay [8] is T3, TRPV4 (Homo sapiens, UniProt Q9HBA0).
T3 construct: expressed in transfected cells; host or cells: CHO cells
T3 sequence (Q9HBA0 whole entry, species assumed): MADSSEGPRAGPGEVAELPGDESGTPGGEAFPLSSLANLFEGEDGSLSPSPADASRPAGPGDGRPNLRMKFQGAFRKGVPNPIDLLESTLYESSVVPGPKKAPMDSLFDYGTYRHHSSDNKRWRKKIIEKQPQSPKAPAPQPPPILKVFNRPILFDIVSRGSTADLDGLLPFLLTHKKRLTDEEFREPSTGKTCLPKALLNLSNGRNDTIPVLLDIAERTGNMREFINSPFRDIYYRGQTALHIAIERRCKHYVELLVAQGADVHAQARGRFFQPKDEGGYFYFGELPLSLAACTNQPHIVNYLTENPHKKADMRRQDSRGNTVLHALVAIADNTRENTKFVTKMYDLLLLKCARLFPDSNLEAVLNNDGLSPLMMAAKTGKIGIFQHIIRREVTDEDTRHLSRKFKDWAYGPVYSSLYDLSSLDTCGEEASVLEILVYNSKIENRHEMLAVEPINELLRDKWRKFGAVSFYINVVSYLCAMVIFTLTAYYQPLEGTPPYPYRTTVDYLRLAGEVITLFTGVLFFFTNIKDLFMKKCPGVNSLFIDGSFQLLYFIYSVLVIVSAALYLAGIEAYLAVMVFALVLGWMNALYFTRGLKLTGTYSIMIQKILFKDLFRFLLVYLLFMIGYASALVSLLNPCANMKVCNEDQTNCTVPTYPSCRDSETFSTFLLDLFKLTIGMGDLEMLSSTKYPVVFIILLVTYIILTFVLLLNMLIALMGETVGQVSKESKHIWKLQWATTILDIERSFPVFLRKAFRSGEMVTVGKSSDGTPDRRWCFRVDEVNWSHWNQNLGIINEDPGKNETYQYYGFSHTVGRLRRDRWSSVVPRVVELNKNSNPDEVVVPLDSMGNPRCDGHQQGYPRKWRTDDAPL
Briefly: Calcium imaging of TRPV4-expressing CHO cells. In kind it is cell-based.

Assay [9] can be described thus: Paw withdrawal latency to heat (hyperalgesia) after intraplantar injection. In kind it is in vivo, mice. The protocol:
To provide further evidence of the role of TRPA1 in pain sensation, we investigated if cinnamaldehyde injections could lead to hyperalgesia, an increased response to pain due to sensitization often caused by inflammation or injury. […] In contrast, no significant difference could be observed between the latencies of the two paws when vehicle was injected.
Hyperalgesia to heat is thought to involve sensitization of TRPV1. […] Note that paw withdrawal latencies to heat are higher in TRPV1^−/− mice, consistent with the partial heat sensitivity phenotype of these mice (Caterina et al., Science 288: 306-313, 2000; and Davis et al., Nature 405: 183-187, 2000). Therefore, the acute nociceptive response of cinnamaldehyde is independent of TRPV1, while the heat hyperalgesia is mediated through TRPV1.

The target of assay [10] is T1, mTRPA1. Kind of assay: Whole cell patch clamp of mTRPA1-expressing CHO cells. Format: cell-based. The text has this:
(§2) We also characterized the cinnamaldehyde-induced current in mTRPA1 expressing CHO cells. […] Expression of either mouse or human TRPA1 (hTRPA1) in Xenopus oocytes rendered these cells responsive to cinnamaldehyde as well as to cold temperatures. […] Indeed, the cinnamaldehyde-induced current from mTRPA1-expressing oocytes rarely returned to baseline, even after washing out the compound.
For orientation: Patch clamp records ionic current or voltage across a cell membrane.

Assay [11] deals with T2, mouse TRPA1. Briefly: Current recording in Xenopus oocytes expressing mouse TRPA1. Format: cell-based.
From the text: as §2

Assay [12] has as its target T4, dTRPA1 (dANTKM1) (Drosophila melanogaster, UniProt Q7Z020).
T4 construct: expressed in transfected cells; host or cells: oocytes (Xenopus, from the preceding sentences)
T4 sequence (Q7Z020 1-1197): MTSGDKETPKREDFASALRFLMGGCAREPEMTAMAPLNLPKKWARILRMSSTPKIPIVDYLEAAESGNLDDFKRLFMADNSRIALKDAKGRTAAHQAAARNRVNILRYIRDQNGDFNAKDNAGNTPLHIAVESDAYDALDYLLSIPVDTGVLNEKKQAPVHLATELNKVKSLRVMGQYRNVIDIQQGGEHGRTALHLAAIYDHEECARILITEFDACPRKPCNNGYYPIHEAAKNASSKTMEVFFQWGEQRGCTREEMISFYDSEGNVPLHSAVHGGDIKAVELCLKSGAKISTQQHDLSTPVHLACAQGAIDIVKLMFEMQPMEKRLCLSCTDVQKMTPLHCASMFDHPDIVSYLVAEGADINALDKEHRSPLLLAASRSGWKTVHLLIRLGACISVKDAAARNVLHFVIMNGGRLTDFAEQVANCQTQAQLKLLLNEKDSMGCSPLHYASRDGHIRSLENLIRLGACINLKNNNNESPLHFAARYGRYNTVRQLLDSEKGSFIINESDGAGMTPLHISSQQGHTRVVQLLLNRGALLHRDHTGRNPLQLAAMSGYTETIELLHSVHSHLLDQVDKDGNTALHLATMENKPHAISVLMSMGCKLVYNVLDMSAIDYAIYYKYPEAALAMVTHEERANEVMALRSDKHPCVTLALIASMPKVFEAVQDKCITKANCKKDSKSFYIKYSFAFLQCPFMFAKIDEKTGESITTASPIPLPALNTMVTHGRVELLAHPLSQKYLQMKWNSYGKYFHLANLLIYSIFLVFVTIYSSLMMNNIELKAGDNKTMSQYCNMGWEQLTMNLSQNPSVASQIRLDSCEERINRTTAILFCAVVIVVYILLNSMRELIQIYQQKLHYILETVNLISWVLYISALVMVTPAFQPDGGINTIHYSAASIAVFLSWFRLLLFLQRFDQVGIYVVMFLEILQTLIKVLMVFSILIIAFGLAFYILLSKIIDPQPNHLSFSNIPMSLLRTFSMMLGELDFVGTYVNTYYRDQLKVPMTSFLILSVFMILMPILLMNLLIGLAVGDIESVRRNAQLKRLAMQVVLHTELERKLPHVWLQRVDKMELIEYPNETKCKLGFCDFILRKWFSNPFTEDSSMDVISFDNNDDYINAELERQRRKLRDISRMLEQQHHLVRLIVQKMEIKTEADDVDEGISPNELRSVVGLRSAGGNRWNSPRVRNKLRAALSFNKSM
Briefly: Current recording in oocytes expressing dTRPA1. In kind it is cell-based.

Assay [13] in a line: Nociceptive behavior after intraplantar injection in mice. In kind it is in vivo.
The target of assay [14] is T5, human TRPA1 (hTRPA1) (Homo sapiens, UniProt O75762).
T5 construct: expressed in transfected cells; host or cells: Xenopus oocytes
T5 sequence (O75762 whole entry): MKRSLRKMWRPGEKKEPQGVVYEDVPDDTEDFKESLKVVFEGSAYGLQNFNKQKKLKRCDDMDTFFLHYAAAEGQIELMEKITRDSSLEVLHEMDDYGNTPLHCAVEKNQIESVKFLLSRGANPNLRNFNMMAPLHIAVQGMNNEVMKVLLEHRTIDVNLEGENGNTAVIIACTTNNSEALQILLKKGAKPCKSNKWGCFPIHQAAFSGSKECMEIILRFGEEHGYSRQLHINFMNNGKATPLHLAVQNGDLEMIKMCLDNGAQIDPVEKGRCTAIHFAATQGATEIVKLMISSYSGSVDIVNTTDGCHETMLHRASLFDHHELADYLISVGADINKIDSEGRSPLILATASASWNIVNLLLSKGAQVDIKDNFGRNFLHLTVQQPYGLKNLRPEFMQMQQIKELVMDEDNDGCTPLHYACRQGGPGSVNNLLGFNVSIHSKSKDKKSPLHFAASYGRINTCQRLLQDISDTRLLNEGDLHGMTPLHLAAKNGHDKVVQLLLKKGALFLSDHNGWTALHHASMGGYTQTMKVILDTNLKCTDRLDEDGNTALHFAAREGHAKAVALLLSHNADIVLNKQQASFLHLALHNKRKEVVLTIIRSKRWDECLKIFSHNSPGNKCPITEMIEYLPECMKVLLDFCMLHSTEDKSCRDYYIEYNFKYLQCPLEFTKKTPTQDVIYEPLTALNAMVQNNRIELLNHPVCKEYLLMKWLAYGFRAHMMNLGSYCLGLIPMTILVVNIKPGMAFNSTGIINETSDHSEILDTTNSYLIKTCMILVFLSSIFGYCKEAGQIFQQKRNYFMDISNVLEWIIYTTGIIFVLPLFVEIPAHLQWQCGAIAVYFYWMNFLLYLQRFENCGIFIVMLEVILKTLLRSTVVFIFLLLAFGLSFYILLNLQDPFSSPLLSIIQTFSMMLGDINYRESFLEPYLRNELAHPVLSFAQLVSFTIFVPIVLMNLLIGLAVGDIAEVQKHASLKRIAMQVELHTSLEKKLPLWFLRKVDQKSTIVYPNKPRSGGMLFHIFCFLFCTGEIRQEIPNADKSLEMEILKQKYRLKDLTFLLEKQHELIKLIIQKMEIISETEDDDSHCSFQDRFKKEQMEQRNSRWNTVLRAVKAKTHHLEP
Briefly: Current recording in Xenopus oocytes expressing human TRPA1. In kind it is cell-based.
From the text: as §2
Increased currents by repeated application of cinnamaldehyde (sensitization) in oocyte recordings is in contrast to strong desensitization to cinnamaldehyde observed in mTRPA1-expressing CHO cell.

Assay [15] has as its target TRPA1 (Homo sapiens, UniProt O75762). Briefly: Thapsigargin response of cells transiently transfected with hTRPA1 and YFP reporter. Format: cell-based. The arrangement: expressed in transfected cells. Conditions: same coverslip. An excerpt:
Phospholipase C (PLC) and phospholipase A2 are activated by BK signaling. Since many TRP channels are modulated by PLC activity, we tested whether downstream affectors of PLC can modulate TRPA1 function. One of the major consequences of PLC activation is the release of calcium from intracellular stores. We therefore tested if passive release of calcium from the stores with the […] endoplasmic reticulum Ca^2+-ATPase (SERCA) pump blocker thapsigargin could activate TRPA1 function. We examined the effect of thapsigargin on cells transiently-transfected with hTRPA1 and YFP reporter plasmid. This allowed for a direct comparison between TRPA1-expressing (YFP positive) and control (YFP negative) cells under the same experimental conditions (on the same coverslip).

T1 sequence (Q8BLA8 whole entry): as the sequence (Q8BLA8 whole entry) above
Chain of TRPA1 (O75762 whole entry): as the sequence (O75762 whole entry) above

As for `CCCCC/C=C\C/C=C\C/C=C\C/C=C\CCCC(=O)O` [AA, arachidonic acid], the “activation of mTRPA1/TRPA1-expressing CHO cells” value in assay [1] is given as “activated”.
Same read-out and setting: with `CCCCCC#CCC#CCC#CCC#CCCCC(=O)O` [ETYA, 5,8,11,14-Eicosatetraynoic acid] the entry was “activated”.
On to `C=CCc1ccc(O)c(OC)c1` [Eugenol], for which the “increase in intracellular calcium upon application” value in assay [2] is recorded as “sharp increase in intracellular calcium”.
The same measure, in the same setting: under `CCCCC[C@H](O)CC(=O)CCc1ccc(O)c(OC)c1` [Gingerol] stands “sharp increase in intracellular calcium”.
Regarding `N.N.N.N.N.N.N.N.N.N.N.N.N.N.[Cl-].[Cl-].[Cl-].[Cl-].[Cl-].[Cl-].[O-2].[O-2].[Ru+3].[Ru+3].[Ru+4]` [Ruthenium red], in [1] (stimulus AA), the “block of AA activation” value is reported as “blocked”. In addition, in assay [1] (stimulus OAG), the “block of the OAG response” value is “blocked”. The “block of the cinnamaldehyde response” value in [1] (stimulus cinnamaldehyde) is listed as “blocked”.
Consider `COc1ccc2c(c1)CC[C@@H]1[C@@H]2CC[C@]2(C)[C@@H](NCCCCCCN3C(=O)C=CC3=O)CC[C@@H]12` [U-73122], for which, in assay [1] (stimulus cinnamaldehyde), the “effect on TRPA1 activation by cinnamaldehyde” value was “inhibited”. Moreover, the “effect on TRPA1 activation by cold” value in assay [1] (stimulus cold) is given as “strongly downregulated”. In addition, in assay [3] (preincubation necessary for menthol block), the “effect on cold- and menthol-induced responses of TRPM8” value is listed as “strongly dowregulated”. In [4], the “inhibition of BK responses in B2R/TRPA1-expressing CHO cells” value is “inhibited”. The “inhibition of BK responses in B2R-expressing cells” value in [5] is given as “inhibited”.
For the molecule `COc1ccc2c(c1)CC[C@@H]1[C@@H]2CC[C@]2(C)[C@@H](NCCCCCCN3C(=O)CCC3=O)CC[C@@H]12` [U-73343], in assay [4], the “inhibition of BK responses in B2R/TRPA1-expressing CHO cells” value is recorded as “not”. For the same molecule, in assay [5], the “inhibition of BK responses in B2R-expressing cells” value is given as “not”.
Turning to `C=CCN=C=S` [allyl isothiocyanate], the “activation of TRPV1-expressing CHO cells” value in [6] is recorded as “did not activate”. Moreover, in assay [7], the “share of cold-activated (cold-responsive) DRG neurons activated” value is 63% and the “share of cold-insensitive neurons activated” value is 12%. In addition, in [2], the “specificity to mTRPA1 when tested against TRPM8 and TRPV1” value was “specific to mTRPA1”; the “increase in intracellular calcium upon application” value is given as “sharp increase in intracellular calcium”. Further, in assay [2] (read-out: concentration for half maximal activation (EC50)), the EC50 was found to be 22 ± 3 µM. The “increase in intracellular free calcium” value in [1] was “robust increase in intracellular free calcium”. Also, in [3], the “activation of TRPM8-expressing CHO cells” value is listed as “did not activate”. Moreover, in assay [8], the “activation of TRPV4-expressing CHO cells” value is reported as “did not activate”.
Turning to `O=CC=Cc1ccccc1` [cinnamaldehyde], in [6], the “activation of TRPV1-expressing CHO cells” value is recorded as “did not activate”. In assay [9] (TRPV1−/− mice), the heat hyperalgesia entry is reported as “absent”. For the same molecule, the “paw withdraw latency, injected compared to control paws” value in assay [9] (thirty minutes after injection, p=0.009) was “significantly lowered”. The elicited current entry in [10] is “robust desensitized current”. The “response of mouse TRPA1-expressing oocytes” value in [11] is reported as “responsive”. Besides, in assay [7], the “share of cold-activated (cold-responsive) DRG neurons activated” value turned out to be 39% and the “share of cold-insensitive neurons activated” value was 1%. In assay [12], the “response of dTRPA1-expressing oocytes” value is reported as “did not respond”. Besides, in [2], the “specificity to mTRPA1 when tested against TRPM8 and TRPV1” value is recorded as “specific to mTRPA1”; the “increase in intracellular calcium upon application” value is reported as “sharp increase in intracellular calcium”. For the same molecule, the EC50 in assay [2] (concentration for half maximal activation (EC50)) is 61 µM and ~61 µM. Further, the response to injection result in assay [13] (TRPV1−/− mice) was “responded”. In [13] (wildtype mice, intraplantar, five minutes post-injection, cinnamaldehyde 5 mM and 16.4 mM), the “licking and shaking of the injected hindpaw” value was “induced licking and shaking of the injected hindpaw”. Moreover, the “increase in intracellular free calcium” value in assay [1] is on record as “robust increase in intracellular free calcium”. The “activation of TRPM8-expressing CHO cells” value in assay [3] is given as “did not activate”. Moreover, the “response of human TRPA1-expressing oocytes” value in assay [14] is recorded as “responsive”. Also, the “current of second pulse relative to first pulse” value in assay [14] (repeated applications, n=6) worked out at 250±23%. In assay [8], the “activation of TRPV4-expressing CHO cells” value is listed as “did not activate”.
As to `C/C=C(/C)C(=O)O[C@H]1C(C)=C2[C@H]([C@@H]1OC(=O)CCCCCCC)[C@@](C)(OC(C)=O)C[C@H](OC(=O)CCC)[C@@]1(O)[C@H]2OC(=O)[C@@]1(C)O` [thapsigargin], the “response in YFP-positive (TRPA1-expressing) cells compared with control cells” value in assay [15] is listed as “slightly smaller than in YFP-negative cells”.

(Values after US20070196866A1, “Modulators of ion channel trpa1” (IRM LLC, priority 2004, published 2007).)
